Data published in the supplement of paper PMC10307832.

Columns and labels:
Experiment in all cases: relative viability (nuclei count vs DMSO), 5 days (fraction); higher = more cells survive
Everolimus + Foretinib = compound: CO[C@H]1C[C@@H]2CC[C@@H](C)[C@@](O)(O2)C(=O)C(=O)N2CCCC[C@H]2C(=O)O[C@H]([C@H](C)C[C@@H]2CC[C@@H](OCCO)[C@H](OC)C2)CC(=O)[C@H](C)/C=C(\C)[C@@H](O)[C@@H](OC)C(=O)[C@H](C)C[C@H](C)/C=C/C=C/C=C/1C [Everolimus] + COc1cc2c(Oc3ccc(NC(=O)C4(C(=O)Nc5ccc(F)cc5)CC4)cc3F)ccnc2cc1OCCCN1CCOCC1 [Foretinib] (partner 0.25 µM)
In short: (§1)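 Values are medians from duplicate plates. Each reflects relative viability, defined as the nuclei count of treated wells over that of vehicle wells. Lung cancer cell lines in 1536-well plates were pin-tool dosed one day after seeding with one drug alone or with a fixed anchor-drug dose plus five library-drug doses (not always all listed) in √10 steps, then fixed, stained and imaged at 4× after 5 days.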

Everolimus + Tozasertib = compound: CO[C@H]1C[C@@H]2CC[C@@H](C)[C@@](O)(O2)C(=O)C(=O)N2CCCC[C@H]2C(=O)O[C@H]([C@H](C)C[C@@H]2CC[C@@H](OCCO)[C@H](OC)C2)CC(=O)[C@H](C)/C=C(\C)[C@@H](O)[C@@H](OC)C(=O)[C@H](C)C[C@H](C)/C=C/C=C/C=C/1C [Everolimus] + Cc1cc(Nc2cc(N3CCN(C)CC3)nc(Sc3ccc(NC(=O)C4CC4)cc3)n2)n[nH]1 [Tozasertib] (partner 0.1 µM)
In short: as §1

Everolimus + Luminespib = compound: CO[C@H]1C[C@@H]2CC[C@@H](C)[C@@](O)(O2)C(=O)C(=O)N2CCCC[C@H]2C(=O)O[C@H]([C@H](C)C[C@@H]2CC[C@@H](OCCO)[C@H](OC)C2)CC(=O)[C@H](C)/C=C(\C)[C@@H](O)[C@@H](OC)C(=O)[C@H](C)C[C@H](C)/C=C/C=C/C=C/1C [Everolimus] + CCNC(=O)c1noc(-c2cc(C(C)C)c(O)cc2O)c1-c1ccc(CN2CCOCC2)cc1 [Luminespib] (partner 0.01 µM)
In short: as §1

Everolimus + AZD7762 = compound: CO[C@H]1C[C@@H]2CC[C@@H](C)[C@@](O)(O2)C(=O)C(=O)N2CCCC[C@H]2C(=O)O[C@H]([C@H](C)C[C@@H]2CC[C@@H](OCCO)[C@H](OC)C2)CC(=O)[C@H](C)/C=C(\C)[C@@H](O)[C@@H](OC)C(=O)[C@H](C)C[C@H](C)/C=C/C=C/C=C/1C [Everolimus] + NC(=O)Nc1cc(-c2cccc(F)c2)sc1C(=O)N[C@H]1CCCNC1 [AZD7762] (partner 0.2 µM)
In short: as §1

Cell Line | relative viability (Everolimus + Foretinib; first compound 0.01 µM) | relative viability (Everolimus + Foretinib; first compound 0.03162 µM) | relative viability (Everolimus + Foretinib; first compound 0.1 µM) | relative viability (Everolimus + Foretinib; first compound 0.3162 µM) | relative viability (Everolimus + Foretinib; first compound 1 µM) | relative viability (Everolimus + Tozasertib; first compound 0.01 µM) | relative viability (Everolimus + Tozasertib; first compound 0.03162 µM) | relative viability (Everolimus + Tozasertib; first compound 0.1 µM) | relative viability (Everolimus + Tozasertib; first compound 0.3162 µM) | relative viability (Everolimus + Tozasertib; first compound 1 µM) | relative viability (Everolimus + Luminespib; first compound 0.01 µM) | relative viability (Everolimus + Luminespib; first compound 0.03162 µM) | relative viability (Everolimus + Luminespib; first compound 0.1 µM) | relative viability (Everolimus + Luminespib; first compound 0.3162 µM) | relative viability (Everolimus + Luminespib; first compound 1 µM) | relative viability (Everolimus + AZD7762; first compound 0.01 µM) | relative viability (Everolimus + AZD7762; first compound 0.03162 µM) | relative viability (Everolimus + AZD7762; first compound 0.1 µM) | relative viability (Everolimus + AZD7762; first compound 0.3162 µM) | relative viability (Everolimus + AZD7762; first compound 1 µM)
NCI-H2085 | 0.812 | 0.584 | 0.617 | 0.777 | 0.695 | 0.81 | 0.723 | 0.602 | 0.656 | 0.557 | 0.258 | 0.28 | 0.349 | 0.319 | 0.304 | 0.808 | 0.753 | 0.45 | 0.654 | 0.481
NCI-H2087 | 0.704 | 0.662 | 0.739 | 0.875 | 0.713 | 0.256 | 0.199 | 0.198 | 0.218 | 0.174 | 0.168 | 0.205 | 0.146 | 0.143 | 0.15 | 1.25 | 1.51 | 1.2 | 1.36 | 1.35
NCI-H2126 | 0.97 | 0.925 | 0.892 | 0.772 | 0.73 | 0.64 | 0.609 | 0.52 | 0.637 | 0.568 | 0.532 | 0.457 | 0.42 | 0.564 | 0.381 | 0.688 | 0.598 | 0.629 | 0.688 | 0.703
NCI-H2170 | 0.635 | 0.641 | 0.654 | 0.587 | 0.614 | 0.443 | 0.428 | 0.461 | 0.518 | 0.399 | 0.291 | 0.175 | 0.229 | 0.316 | 0.198 | 0.367 | 0.403 | 0.334 | 0.374 | 0.401
NCI-H2342 | 0.924 | 0.654 | 0.551 | 0.618 | 0.681 | 0.557 | 0.4 | 0.435 | 0.352 | 0.407 | 0.668 | 0.496 | 0.426 | 0.46 | 0.553 | 0.394 | 0.331 | 0.382 | 0.376 | 0.461
NCI-H2347 | 0.855 | 0.499 | 0.511 | 0.684 | 0.552 | 0.531 | 0.519 | 0.365 | 0.506 | 0.305 | 0.497 | 0.367 | 0.301 | 0.332 | 0.362 | 0.651 | 0.618 | 0.576 | 0.622 | 0.439
NCI-H2405 | 0.973 | 0.857 | 0.763 | 0.809 | 0.781 | 0.832 | 0.729 | 0.717 | 0.762 | 0.657 | 0.657 | 0.548 | 0.523 | 0.52 | 0.484 | 0.655 | 0.652 | 0.657 | 0.637 | 0.662
NCI-H3122 | 0.818 | 0.621 | 0.351 | 0.494 | 0.801 | 0.417 | 0.517 | 0.421 | 0.439 | 0.363 | 0.105 | 0.0862 | 0.0973 | 0.113 | 0.0788 | 0.75 | 0.765 | 0.711 | 0.629 | 0.725
PC-3 [JPC-3] | 1.16 | 1.13 | 0.994 | 0.985 | 0.987 | 0.927 | 0.806 | 0.849 | 0.868 | 0.873 | 0.466 | 0.517 | 0.493 | 0.372 | 0.474 | 0.58 | 0.499 | 0.615 | – | 0.647
PC-14 | 0.986 | 0.968 | 0.928 | 0.756 | 0.854 | 0.592 | 0.673 | 0.499 | 0.417 | 0.424 | 0.175 | 0.171 | 0.145 | 0.171 | 0.191 | 0.201 | 0.204 | 0.171 | 0.145 | 0.163
RERF-LC-KJ | 0.686 | 0.694 | 0.578 | 0.539 | 0.559 | 0.398 | 0.436 | 0.382 | 0.431 | 0.428 | 0.895 | 0.834 | 0.807 | 0.848 | 0.646 | 0.566 | 0.415 | 0.462 | 0.507 | 0.598
SW 900 | 0.685 | 0.477 | 0.748 | 0.525 | 0.508 | 0.332 | 0.462 | 0.442 | 0.404 | 0.448 | 0.173 | 0.174 | 0.165 | 0.154 | 0.169 | 0.362 | 0.33 | 0.285 | 0.36 | 0.427
